Measurements: PubChem BioAssay AID330 (DTP/NCI, 2004)
“And” between values parts separate entries of the source, which are not always exact repeats. Equal values may be shown once. Inconclusive results and toxic doses are left out.

Test system: P388 leukemia ip, CD2F1 mice, survival T/C
Experiment: NCI In Vivo Anticancer Drug Screen. Data for tumor model P388 Leukemia (intraperitoneal) in CD2F1 (CDF1) mice
Settings: endpoint: median survival time, higher = longer survival
How it was run: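 Mice carrying the transplanted tumor received test compound or vehicle. Survival was recorded in each group, and the value is the treated-group measurement divided by that of the vehicle-treated control group.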

[1] = dose: 50.0 mg/kg/injection, schedule: Q01DX005 (ip), vehicle: saline
[2] = dose: 100.0 mg/kg/injection, schedule: Q01DX005 (ip), vehicle: saline
[3] = dose: 200.0 mg/kg/injection, schedule: Q01DX005 (ip), vehicle: saline
[4] = dose: 100.0 mg/kg/injection, schedule: Q04DX003 (ip), vehicle: Klucel (hydroxypropylcellulose) (HPC)
[5] = dose: 200.0 mg/kg/injection, schedule: Q04DX003 (ip), vehicle: Klucel (hydroxypropylcellulose) (HPC)
[6] = dose: 60.0 mg/kg/injection, schedule: Q01DX005 (ip), vehicle: Klucel (hydroxypropylcellulose) (HPC)
[7] = dose: 50.0 mg/kg/injection, schedule: Q01DX005 (ip), vehicle: saline with Tween-80
[8] = dose: 100.0 mg/kg/injection, schedule: Q01DX005 (ip), vehicle: saline with Tween-80
[9] = dose: 200.0 mg/kg/injection, schedule: Q01DX005 (ip), vehicle: saline with Tween-80
[10] = dose: 100.0 mg/kg/injection, schedule: Q01DX009 (ip), vehicle: saline with Tween-80
[11] = dose: 50.0 mg/kg/injection, schedule: Q01DX005 (ip), vehicle: Klucel (hydroxypropylcellulose) (HPC)
[12] = dose: 100.0 mg/kg/injection, schedule: Q01DX005 (ip), vehicle: Klucel (hydroxypropylcellulose) (HPC)
[13] = dose: 200.0 mg/kg/injection, schedule: Q01DX005 (ip), vehicle: Klucel (hydroxypropylcellulose) (HPC)
[14] = dose: 100.0 mg/kg/injection, schedule: Q01DX001 (ip), vehicle: saline with Tween-80
[15] = dose: 200.0 mg/kg/injection, schedule: Q01DX001 (ip), vehicle: saline with Tween-80
[16] = dose: 400.0 mg/kg/injection, schedule: Q01DX001 (ip), vehicle: saline with Tween-80
[17] = dose: 60.0 mg/kg/injection, schedule: Q01DX005 (ip), vehicle: saline with Tween-80
[18] = dose: 120.0 mg/kg/injection, schedule: Q01DX005 (ip), vehicle: saline with Tween-80
[19] = dose: 240.0 mg/kg/injection, schedule: Q01DX005 (ip), vehicle: saline with Tween-80

## ClCCN(CCCl)CCNc1ccnc2cc(Cl)ccc12
dose: 0.1 mg/kg/injection, schedule: Q01DX009 (ip), vehicle: saline
  T/C: 104 % of control
dose: 0.2 mg/kg/injection, schedule: Q01DX009 (ip), vehicle: saline
  T/C: 90 % of control
dose: 0.38 mg/kg/injection, schedule: Q01DX009 (ip), vehicle: saline
  T/C: 114 % of control
dose: 0.5 mg/kg/injection, schedule: Q01DX009 (ip), vehicle: saline sonified
  T/C: 90 % of control
dose: 0.58 mg/kg/injection, schedule: Q01DX009 (ip), vehicle: saline
  T/C: 114 % of control
dose: 0.88 mg/kg/injection, schedule: Q04DX003 (ip), vehicle: saline
  T/C: 118 % of control
dose: 1.0 mg/kg/injection, schedule: Q01DX009 (ip), vehicle: saline sonified
  T/C: 118 % of control
dose: 2.0 mg/kg/injection, schedule: Q04DX003 (ip), vehicle: saline
  T/C: 118 % of control
dose: 4.4 mg/kg/injection, schedule: Q01DX009 (ip), vehicle: saline
  T/C: 166 % of control

## CC(N)C(=O)NC(CC(N)=O)C(=O)O (centres undefined)
[1]
  T/C: 105 % of control
dose: 50.0 mg/kg/injection, schedule: Q01DX009 (ip), vehicle: saline
  T/C: 101 % of control
[2]
  T/C: 110 % of control
dose: 100.0 mg/kg/injection, schedule: Q01DX009 (ip), vehicle: saline
  T/C: 94 % of control
[3]
  T/C: 94 % of control
dose: 200.0 mg/kg/injection, schedule: Q01DX009 (ip), vehicle: saline
  T/C: 93 % of control

## CC1CC=C(C(=O)N2CCOCC2)C1 (centres undefined)
dose: 50.0 mg/kg/injection, schedule: Q04DX003 (ip), vehicle: Klucel (hydroxypropylcellulose) (HPC)
  T/C: 103 % of control
[4]
  T/C: 105 % of control
[5]
  T/C: 101 % of control

## CC1CS(=O)(=O)O1 (centres undefined)
[6]
  T/C: 104 % of control
dose: 120.0 mg/kg/injection, schedule: Q01DX005 (ip), vehicle: Klucel (hydroxypropylcellulose) (HPC)
  T/C: 103 % of control
dose: 240.0 mg/kg/injection, schedule: Q01DX005 (ip), vehicle: Klucel (hydroxypropylcellulose) (HPC)
  T/C: 110 % of control

## CC1CCCCN1C (centres undefined)
dose: 25.0 mg/kg/injection, schedule: Q01DX005 (ip), vehicle: saline with Tween-80
  T/C: 90 % of control
[7]
  T/C: 91 % of control
[8]
  T/C: 89 % of control

## CCOC(=O)C(=O)C(C(=O)c1ccccn1)c1nc2n(c1O)C(=N)N=N2 (centres undefined)
[7]
  T/C: 102 % of control
[8]
  T/C: 94 % of control
[9]
  T/C: 87 % of control

## CNc1c2ccccc2nc2ccccc12
dose: 12.5 mg/kg/injection, schedule: Q04DX002 (ip), vehicle: distilled water + Tween-80
  T/C: 98 % of control
dose: 25.0 mg/kg/injection, schedule: Q04DX002 (ip), vehicle: distilled water + Tween-80
  T/C: 100 % of control

## CCOC(=O)c1sc(N)c(C(=O)OCC)c1C
[10]
  T/C: 86 % of control

## ONc1ncnc2nc[nH]c12
dose: 50.0 mg/kg/injection, schedule: Q04DX003 (ip), vehicle: saline with Tween-80
  T/C: 122 % of control
dose: 200.0 mg/kg/injection, schedule: Q04DX003 (ip), vehicle: saline sonified
  T/C: 120 % of control

## O=c1oc(-c2ccccc2)nc2c1CCS2
[11]
  T/C: 93 % of control
[12]
  T/C: 97 % of control
[13]
  T/C: 90 % of control

## O=CNC(CSSCC(NC=O)C(=O)O)C(=O)O (centres undefined)
[11]
  T/C: 101 % of control
[12]
  T/C: 101 % of control
dose: 100.0 mg/kg/injection, schedule: Q04DX003 (ip), vehicle: saline with Tween-80
  T/C: 113 % of control
[13]
  T/C: 95 % of control
dose: 200.0 mg/kg/injection, schedule: Q04DX003 (ip), vehicle: saline with Tween-80
  T/C: 90 % of control
dose: 400.0 mg/kg/injection, schedule: Q04DX003 (ip), vehicle: saline with Tween-80
  T/C: 90 % of control

## CC1=C(C#N)C(=N)OC1(C)C1CC(=O)C=CC1=O (centres undefined)
dose: 60.0 mg/kg/injection, schedule: Q01DX005 (ip), vehicle: suspension in saline
  T/C: 119 % of control

## CCCCSc1nc2ccc(N=Cc3ccccc3O)cc2s1
dose: 50.0 mg/kg/injection, schedule: Q01DX009 (ip), vehicle: Klucel (hydroxypropylcellulose) (HPC)
  T/C: 103 % of control
dose: 100.0 mg/kg/injection, schedule: Q01DX009 (ip), vehicle: Klucel (hydroxypropylcellulose) (HPC)
  T/C: 99 % of control

## CSP(C)(=O)CCC(C)=O (centres undefined)
dose: 25.0 mg/kg/injection, schedule: Q01DX001 (ip), vehicle: saline
  T/C: 100 % of control
dose: 50.0 mg/kg/injection, schedule: Q01DX001 (ip), vehicle: saline
  T/C: 100 % of control
dose: 100.0 mg/kg/injection, schedule: Q01DX001 (ip), vehicle: saline
  T/C: 102 % of control

## N#CC(C#N)=Cc1cc2c3c(c1)CCCN3CCC2
[14]
  T/C: 100 % of control
[15]
  T/C: 100 % of control
[16]
  T/C: 90 % of control

## COC(=O)C(=O)C(C(=O)c1ccncc1)c1nc2n(c1O)C(=N)N=N2 (centres undefined)
[1]
  T/C: 97 % of control
[2]
  T/C: 97 % of control
[3]
  T/C: 100 % of control

## CCOc1ccccc1C(=O)Nc1cc(C)nn1-c1ccccc1
[14]
  T/C: 102 % of control
[15]
  T/C: 100 % of control
[16]
  T/C: 106 % of control

## O=C(CCCCCCCC(=O)NO)NO
[17]
  T/C: 95 % of control
[18]
  T/C: 100 % of control
[19]
  T/C: 105 % of control

## COc1ccc(-c2cc(C(=O)Nc3cc(C(F)(F)F)cc(C(F)(F)F)c3)c3ccccc3n2)cc1
[7]
  T/C: 91 % of control
dose: 100.0 mg/kg/injection, schedule: Q01DX005 (ip), vehicle: DMSO
  T/C: 118 % of control
[8]
  T/C: 89 % of control
dose: 200.0 mg/kg/injection, schedule: Q01DX005 (ip), vehicle: DMSO
  T/C: 118 % of control
[9]
  T/C: 93 % of control
dose: 400.0 mg/kg/injection, schedule: Q01DX005 (ip), vehicle: DMSO
  T/C: 96 % of control

## c1cc2c(cc1CN1CCOCC1)CCc1cc(CN3CCOCC3)ccc1N2
dose: 15.0 mg/kg/injection, schedule: Q01DX005 (ip), vehicle: Klucel (hydroxypropylcellulose) (HPC)
  T/C: 101 % of control
dose: 30.0 mg/kg/injection, schedule: Q01DX005 (ip), vehicle: Klucel (hydroxypropylcellulose) (HPC)
  T/C: 100 % of control
[6]
  T/C: 94 % of control and 95 % of control

## Cc1ccc2c(c1)CN(C)c1ccc(C)cc1CN2C
[17]
  T/C: 98 % of control
[18]
  T/C: 100 % of control
[19]
  T/C: 98 % of control

## CN1C2=C(C(=O)CCC2)C(c2ccccc2)C2=C1CCCC2=O
[7]
  T/C: 103 % of control
[8]
  T/C: 100 % of control
[9]
  T/C: 98 % of control

## C=CC(=O)OCCCCCCCCCC
[4]
  T/C: 101 % of control
[5]
  T/C: 109 % of control
dose: 400.0 mg/kg/injection, schedule: Q04DX003 (ip), vehicle: Klucel (hydroxypropylcellulose) (HPC)
  T/C: 108 % of control

## CC(=O)O[C@H]1CC[C@@]2(C)C(=CC[C@@H]3[C@@H]2CC[C@]2(C)C(=NCCCN4CCOCC4)CC[C@@H]32)C1
[11]
  T/C: 105 % of control
[12]
  T/C: 101 % of control
[13]
  T/C: 99 % of control

## Nc1nc(=O)n(C2CC(O)C(CO)O2)cc1Cl (centres undefined)
dose: 25.0 mg/kg/injection, schedule: Q01DX005 (ip), vehicle: saline
  T/C: 98 % of control
[1]
  T/C: 105 % of control
[2]
  T/C: 100 % of control
[3]
  T/C: 110 % of control
dose: 400.0 mg/kg/injection, schedule: Q01DX005 (ip), vehicle: saline
  T/C: 107 % of control

## O=C(/C(=C(\C(=O)c1ccccc1)c1ccccc1)c1ccccc1)c1ccccc1
dose: 50.0 mg/kg/injection, schedule: Q01DX009 (ip), vehicle: saline with Tween-80
  T/C: 99 % of control
[10]
  T/C: 92 % of control
dose: 200.0 mg/kg/injection, schedule: Q01DX009 (ip), vehicle: saline with Tween-80
  T/C: 87 % of control
dose: 400.0 mg/kg/injection, schedule: Q01DX009 (ip), vehicle: saline with Tween-80
  T/C: 86 % of control
